{
  "source": "the supplement of paper PMC10307832",
  "experiment_in_all_cases": "relative viability (nuclei count vs DMSO), 5 days (fraction); higher = more cells survive",
  "key": {"Quizartinib + Tozasertib": {"compound": "CC(C)(C)c1cc(NC(=O)Nc2ccc(-c3cn4c(n3)sc3cc(OCCN5CCOCC5)ccc34)cc2)no1 [Quizartinib] + Cc1cc(Nc2cc(N3CCN(C)CC3)nc(Sc3ccc(NC(=O)C4CC4)cc3)n2)n[nH]1 [Tozasertib] (partner 0.1 µM)", "outline": "(§1)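 The day after seeding in 1536-well plates, lung cancer cell lines were treated by pin tool with a single drug, or with a fixed anchor-drug dose together with five library-drug doses (not always all listed) in √10 steps. After 5 days, a combined fix-and-stain solution (final 0.05% Triton X-100, 1% formaldehyde, 1 ug/ml Hoechst) was added. Nuclei counted on 4× images gave relative viability as treated counts over vehicle counts, reported as the median of duplicate plates.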"}, "Quizartinib + Olaparib": {"compound": "CC(C)(C)c1cc(NC(=O)Nc2ccc(-c3cn4c(n3)sc3cc(OCCN5CCOCC5)ccc34)cc2)no1 [Quizartinib] + O=C(c1cc(Cc2n[nH]c(=O)c3ccccc23)ccc1F)N1CCN(C(=O)C2CC2)CC1 [Olaparib] (partner 8 µM)", "outline": "as §1"}, "YM155 + Trametinib": {"compound": "COCC[n+]1c2c(n(Cc3cnccn3)c1C)C(=O)c1ccccc1C2=O [YM155] + CC(=O)Nc1cccc(-n2c(=O)n(C3CC3)c(=O)c3c(Nc4ccc(I)cc4F)n(C)c(=O)c(C)c32)c1 [Trametinib] (partner 0.02 µM)", "outline": "as §1"}, "YM155 + Tozasertib": {"compound": "COCC[n+]1c2c(n(Cc3cnccn3)c1C)C(=O)c1ccccc1C2=O [YM155] + Cc1cc(Nc2cc(N3CCN(C)CC3)nc(Sc3ccc(NC(=O)C4CC4)cc3)n2)n[nH]1 [Tozasertib] (partner 0.1 µM)", "outline": "as §1"}, "YM155 + Pemetrexed": {"compound": "COCC[n+]1c2c(n(Cc3cnccn3)c1C)C(=O)c1ccccc1C2=O [YM155] + Nc1nc2[nH]cc(CCc3ccc(C(=O)N[C@@H](CCC(=O)O)C(=O)O)cc3)c2c(=O)[nH]1 [Pemetrexed] (partner 0.2 µM)", "outline": "as §1"}, "YM155 + Decitabine": {"compound": "COCC[n+]1c2c(n(Cc3cnccn3)c1C)C(=O)c1ccccc1C2=O [YM155] + Nc1ncn([C@H]2C[C@H](O)[C@@H](CO)O2)c(=O)n1 [Decitabine] (partner 2 µM)", "outline": "as §1"}},
  "data": [
    {"cell line": "NCI-H1648", "values": [
      {"measurement": "relative viability", "setting": "Quizartinib + Tozasertib; first compound 0.01 µM", "result": 0.38},
      {"measurement": "relative viability", "setting": "Quizartinib + Tozasertib; first compound 0.03162 µM", "result": 0.341},
      {"measurement": "relative viability", "setting": "Quizartinib + Tozasertib; first compound 0.1 µM", "result": 0.585},
      {"measurement": "relative viability", "setting": "Quizartinib + Olaparib; first compound 0.003162 µM", "result": 0.985},
      {"measurement": "relative viability", "setting": "Quizartinib + Olaparib; first compound 0.03162 µM", "result": 0.604},
      {"measurement": "relative viability", "setting": "Quizartinib + Olaparib; first compound 0.1 µM", "result": 0.909},
      {"measurement": "relative viability", "setting": "YM155 + Trametinib; first compound 0.006325 µM", "result": 0.902},
      {"measurement": "relative viability", "setting": "YM155 + Trametinib; first compound 0.02 µM", "result": 0.444},
      {"measurement": "relative viability", "setting": "YM155 + Trametinib; first compound 0.06325 µM", "result": 0.651},
      {"measurement": "relative viability", "setting": "YM155 + Tozasertib; first compound 0.002 µM", "result": 0.386},
      {"measurement": "relative viability", "setting": "YM155 + Tozasertib; first compound 0.006325 µM", "result": 0.605},
      {"measurement": "relative viability", "setting": "YM155 + Tozasertib; first compound 0.02 µM", "result": 0.586},
      {"measurement": "relative viability", "setting": "YM155 + Tozasertib; first compound 0.06325 µM", "result": 0.427},
      {"measurement": "relative viability", "setting": "YM155 + Pemetrexed; first compound 0.006325 µM", "result": 0.97},
      {"measurement": "relative viability", "setting": "YM155 + Pemetrexed; first compound 0.02 µM", "result": 0.702},
      {"measurement": "relative viability", "setting": "YM155 + Pemetrexed; first compound 0.06325 µM", "result": 0.804},
      {"measurement": "relative viability", "setting": "YM155 + Decitabine; first compound 0.006325 µM", "result": 0.593},
      {"measurement": "relative viability", "setting": "YM155 + Decitabine; first compound 0.02 µM", "result": 0.41},
      {"measurement": "relative viability", "setting": "YM155 + Decitabine; first compound 0.06325 µM", "result": 0.599}
    ]}
  ]
}
